Experimental data from patent publication EP1184367A1, “AMIDE DERIVATIVES” (Sumitomo Pharmaceuticals Company, Limited, priority 1999, dated 2000).
Where two headings read alike, the source gives them in different places.

Tested on: constant white light-induced retinal damage
Description: Male Wistar rats (7 weeks old, Charles River Japan Inc.) were purchased and maintained in cyclic light / dark environment (8:00-20:00 / light term) for one week, and then placed within the apparatus for constant white light exposure for two days. The constant white light exposure apparatus is a covered breeding box of 1020 mm in length, 425 mm in width, 520 mm in height, which is made of acryl boards and of which all inner side are covered with mirrors. Light was continuously irradiated all the day long (24 hours) using white fluorescent lamp attached to the ceiling of the apparatus. The average illuminance in the apparatus was 174.2 foot candle. After two days in the apparatus, the rats were moved to a darkroom and dark adapted for 1-4 hours. The rats were anesthetized with pentobarbital and placed in a stereotaxic frame. After topical mydriatica was given and electrodes were put on corneal surface, center of the forehead and the lower part of the lobe, the response in active potential of retina to the flash stimulation with fixed energy was determined from the recorded ERG (electroretinogram). The damage of retina was evaluated by the decrease in the amplitude of ERG a-wave which originated from retinal outer nuclear cells (photoreceptors). […]

Row | Compound | % recovery (Mean±S.E.M.) (rat, in vivo, po, 100 mg/kg) | % recovery (Mean±S.E.M.) (rats, 100 mg/kg orally administered in 0.5 % methylcellulose, just before constant light exposure and at the same time on the next day, two days of exposure, ERG a-wave amplitude relative to normal control and MC groups, five rats in a group)
1 | CC(C)(COC(=O)CCC(=O)O)NC(=O)c1ccc(F)cc1F [Example 3, N-(2-(3-Carboxypropionyloxy)-1,1-dimethylethyl)-2,4-difluorobenzamide] | 14.0 ± 3.1% | –
2 | CC(C)(COC(=O)CN)NC(=O)c1ccc(F)cc1F.O=S(=O)(O)c1ccccc1 [Example 4, N-(2-Glycyloxy-1,1-dimethylethyl)-2,4-difluorobenzamide benzenesulfonate] | – | 19.5 ± 3.3%
